Values of other authors as cited in US20100167988A1, “ETHOXYPHENYLMETHYL INHIBITORS OF SGLT2” (AUSPEX PHARMACEUTICALS, INC., priority 2008, published 2010).

System: multiple CYP enzymes, including CYP1A1, CYP1A2, CYP2A6, CYP2C9, CYP2D6, and CYP3A4
Details: recombinant CYP isoforms, in vitro

- turnover: low
Compound: CCOc1ccc(Cc2cc([C@@H]3O[C@H](CO)[C@@H](O)[C@H](O)[C@H]3O)ccc2Cl)cc1 [Dapagliflozin, (2S,3R,4R,5S,6R)-2-(3-(4-ethoxybenzyl)-4-chlorophenyl)-6-(hydroxymethyl)-tetrahydro-2H-pyran-3,4,5-triol]
